Measured values reported in paper PMC9738179, “New Nucleic Base-Tethered Trithiolato-Bridged Dinuclear Ruthenium(II)-Arene Compounds: Synthesis and Antiparasitic Activity” (Molecules, 2022).
“And” between values parts separate entries of the source, which are not always exact repeats. Equal entries are not always repeated. “Also recorded” adds a separate entry of the source. Where two headings read alike, the source gives them in different places.

Columns and labels:
[1] = tested on: T. gondii β-gal tachyzoites; assay: Primary screening: T. gondii β-gal proliferation in HFF monolayers at 0.1 and 1 µM (CPRG readout); format: cell-based, Toxoplasma gondii; settings: tachyzoites cultured in HFF, 72 h, relative to DMSO control
Protocol: (§1) The screening cascade for the compounds was described in former studies. All compounds were prepared as 1 mM stock solutions from powder, in dimethyl sulfoxide (DMSO, Sigma, St. Louis, MO, USA). For in vitro activity and cytotoxicity assays, HFF were seeded at 5 × 10^3/well and allowed to grow to confluence in phenol-red free culture medium at 37 °C and 5% CO2. T. gondii tachyzoites were released from host cells, and HFF monolayers were infected with freshly isolated parasites (1 × 10^3/well), and compounds were added concomitantly with infection.
In the primary screening, HFF monolayers infected with T. gondii β-gal were treated with 0.1 and 1 µM of each compound, or the corresponding concentration of DMSO (0.01 or 0.1%, respectively) as controls and were incubated for 72 h at 37 °C/5% CO2 as previously described.
(§2) To measure the activity of the tested compound on T. gondii β-gal parasites, after a period of 72 h of culture at 37 °C/5% CO2, the culture medium was aspirated, and cells were permeabilized by adding 90 μL PBS (phosphate buffered saline) with 0.05% Triton X-100. Next, 10 μL of 5 mM chlorophenolred-β-D-galactopyranoside (CPRG; Roche Diagnostics, Rotkreuz, Switzerland, substrate for the β-galactosidase) in PBS were added. Release of chlorophenol red was measured at 570 nm using an EnSpire® multimode plate reader (PerkinElmer, Inc., Waltham, MA, USA). A 100% proliferation of T. gondii β-gal was assigned to control parasites treated only with DMSO. For the primary screening at 0.1 and 1 μM, the activity was measured as the release of chlorophenol red over time and was calculated as percentage from the respective DMSO treated control, which represented 100% of T. gondii β-gal growth.

[2] = Cytotoxicity in non-infected HFF by alamarBlue assay; format: cell-based, human; settings: human, non-infected HFF, 72 h, relative to DMSO control, triplicate
Protocol: as §1
(§3) Cytotoxicity assays using uninfected confluent HFF host cells were performed by the alamarBlue assay as previously reported. Confluent HFF monolayers in 96 well-plates were exposed to 0.1, 1, and 2.5 μM of each compound. Non-treated HFF as well as DMSO controls (0.01%, 0.1%, and 0.25%) were included. After 72 h of incubation at 37 °C/5% CO2, the medium was removed, and the plates were washed once with PBS. Resazurin suspended in PBS to a final concentration of 0.01 g/L was added to each well (200 μL/well). Fluorescence was measured at excitation wavelength 530 nm and emission wavelength […] using an EnSpire® multimode plate reader (PerkinElmer, Inc, Waltham, MA, USA). The cytotoxicity values were calculated as percentage of the respective DMSO control, which represented 100% of HFF viability.

[3] = tested on: T. gondii β-gal tachyzoites; settings: cited from earlier work
[4] = tested on: human foreskin fibroblasts (HFF); settings: cited from earlier work
[5] = tested on: T. gondii β-gal tachyzoites; set-up: method as in PMID 32347622, doi:10.3390/inorganics9080059, PMID 34144354; settings: previously reported, ref [93],[96],[111], cited from earlier work
[6] = Stability in DMSO-d6 by 1H NMR (5 min vs 100 days); format: physicochemical; settings: 25 °C, 5 min and 100 days after sample preparation, stored at 0-5 °C in the dark
Protocol: For the biological activity evaluation, 1 mM stock solutions of all compounds were prepared in dimethylsulfoxide (DMSO).
The conjugates are well soluble in DMSO, solvent used to prepare standard solutions for biological […]
To assess their stability, compounds 4, 24, 28, 33 and 39 were dissolved in DMSO-d6, and two 1H NMR spectra were recorded at 25°C 5 min and at least 100 days after sample preparation (Figures S1 and S2).
Between the two experiments, the samples were stored at 0°C. For all compounds, there are no significant changes between the spectrum recorded after 5 min and the spectrum recorded after at least […]
further biological tests.
Figure S1. […]

[7] = tested on: human foreskin fibroblasts (HFF); assay: Cytotoxicity in non-infected HFF by alamarBlue assay; format: cell-based
Protocol: as §1, §3

[8] = tested on: T. gondii β-gal tachyzoites; assay: Dose-response study (IC50) against T. gondii β-gal tachyzoites; format: cell-based, Toxoplasma gondii; settings: 8 serial concentrations 0.007-1 µM, 72 h
Protocol: as §1
For the dose-response study (IC50 values), measurements for T. gondii β-gal were performed. The selected compounds were added concomitantly with infection in 8 serial concentrations 0.007, 0.01, 0.03, 0.06, 0.12, 0.25, 0.5, and 1 μM.
as §2
For the IC50 assays, the activity measured as the release of chlorophenol red over time was proportional to the number of live parasites down to 50 per well as determined in pilot assays. IC50 values were calculated after the logit-log-transformation of relative growth and subsequent regression analysis. All calculations were performed using the corresponding software tool contained in the Excel software package (Microsoft, Redmond, WA, USA).

[9] = 0.1 µM, non-infected HFF, previously reported, ref [93],[96],[111]
[10] = 1 µM, non-infected HFF, previously reported, ref [93],[96],[111]
[11] = 0.1 µM, non-infected HFF, 72 h, relative to DMSO control, triplicate
[12] = 1 µM, non-infected HFF, 72 h, relative to DMSO control, triplicate
[13] = 2.5 µM, control 0.25% DMSO = 100%, six replicates

Structure (SMILES) | T. gondii β-gal Growth (%) ([1]; 0.1 µM) | T. gondii β-gal Growth (%) ([1]; 1 µM) | viability at 72 h, 0.1 µM [2] [%] | viability at 72 h, 1 µM [2] [%] | Stability in DMSO-d6 (1H NMR spectra) [6] | HFF Viability (%) [7, 11] [%] | further results
C#CCn1ccc(N)nc1=O.C#CCn1ccc(N)nc1=O [Compound 17] | 111 ± 5 | 90 ± 7 | 96 ± 1 | 93 ± 1 | – | – | –
[N-]=[N+]=NCc1cc(=O)[nH]c(=O)[nH]1 [Compound 27, 6-(azidomethyl)uracil] | 101 ± 5 | 99 ± 11 | 98 ± 5 | 102 ± 3 | – | – | –
CCc1nc(N)nc(N)c1-c1ccc(Cl)cc1 [Pyrimethamine, reference compound] | – | – | – | – | – | – | IC50 ([3]; reference compound, ref [93]): 0.326 µM; HFF Viability (%) ([4]; 2.5 µM, reference compound, ref [93]): 99%
CC(C)(C)c1ccc(C[S+]2[Ru-]3[S+](Cc4ccc(C(C)(C)C)cc4)[Ru-]2[S+]3c2ccc(CC(=O)O)cc2)cc1.Cc1ccc(C(C)C)cc1.Cc1ccc(C(C)C)cc1.[Cl-] (stereo not shown) [Compound 3] | – | – | – | – | – | – | HFF Viability (%) [4, 9]: 91 ± 4%; HFF Viability (%) [4, 10]: 73 ± 1%; HFF viability at 2.5 µM ([4]; 2.5 µM, intermediates previously reported, not in Table 2, ref [93],[111]): did not affect HFF viability; T. gondii β-gal Growth (%) ([5]; 0.1 µM): 114 ± 2%; T. gondii β-gal Growth (%) ([5]; 1 µM): 110 ± 2%
NC(=O)CCCc1cn(Cc2cc(=O)[nH]c(=O)[nH]2)nn1 [Compound 28] | – | – | – | – | very good stability; also recorded: no modifications | 101 ± 1 | –
CNc1cn(CCn2cnc3c(N)ncnc32)nn1 [Compound 33] | 94 ± 11 | 83 ± 11 | – | – | very good stability; also recorded: no modifications | 84 ± 6 | HFF Viability (%) [7, 12]: 71 ± 3%
CC(C)(C)c1ccc(C[S+]2[Ru-]3[S+](Cc4ccc(C(C)(C)C)cc4)[Ru-]2[S+]3c2ccccc2CO)cc1.Cc1ccc(C(C)C)cc1.Cc1ccc(C(C)C)cc1.[Cl-] (stereo not shown) [Compound 4] | – | – | – | – | very good stability; also recorded: no modifications | – | IC50 ([3]; compound reported earlier, ref [96]): 0.038 µM; HFF Viability (%) [4, 9]: 80 ± 1%; HFF Viability (%) [4, 10]: 69 ± 6%; HFF Viability (%) ([4]; 2.5 µM, compound reported earlier, ref [96]): 4%; T. gondii β-gal Growth (%) ([5]; 0.1 µM): 2 ± 0%; T. gondii β-gal Growth (%) ([5]; 1 µM): 1 ± 0%
C#CCn1cnc2c(N)ncnc21.C#CCn1cnc2c(N)ncnc21 [Compound 18] | 117 ± 4 | 91 ± 6 | 96 ± 2 | 89 ± 3 | – | – | –
[N-]=[N+]=NCCn1cnc2c(N)ncnc21 [Compound 32] | 103 ± 8 | 94 ± 2 | 104 ± 2 | 103 ± 3 | – | – | –
C#CCn1cc(C)c(=O)[nH]c1=O.C#CCn1cc(C)c(=O)[nH]c1=O [Compound 16] | 96 ± 8 | 95 ± 6 | 104 ± 2 | 103 ± 3 | – | – | –
C#CCNC(=O)Cc1ccc([S+]2[Ru-]3[S+](Cc4ccc(C(C)(C)C)cc4)[Ru-]2[S+]3Cc2ccc(C(C)(C)C)cc2)cc1.Cc1ccc(C(C)C)cc1.Cc1ccc(C(C)C)cc1.[Cl-] (stereo not shown) [Compound 8] | – | – | – | – | – | – | T. gondii β-gal Growth (%) ([5]; 0.1 µM): 52 ± 13%; T. gondii β-gal Growth (%) ([5]; 1 µM): 3 ± 1%
CC(C)(C)c1ccc(C[S]2[Ru]3[S](Cc4ccc(C(C)(C)C)cc4)[Ru+]2[S]3c2ccc(-n3cc(-c4ccccn4)nn3)cc2)cc1.Cc1ccc(C(C)C)cc1.Cc1ccc(C(C)C)cc1.[Cl-] [Compound 39] | 14 ± 1 | 0 ± 0 | – | – | very good stability; also recorded: no modifications | 94 ± 2 | HFF Viability (%) [7, 12]: 90 ± 1%; HFF Viability (%) [7, 13]: highly toxic and 1%; IC50 [8]: 0.075 µM
C#CCn1ccc(=O)[nH]c1=O.C#CCn1ccc(=O)[nH]c1=O [Compound 15] | 109 ± 5 | 83 ± 0 | 107 ± 2 | 96 ± 2 | – | – | –
CC(C)(C)c1ccc(C[S]2[Ru]3[S](Cc4ccc(C(C)(C)C)cc4)[Ru+]2[S]3c2ccc(-n3cc(Cn4cnc5c(N)ncnc54)nn3)cc2)cc1.Cc1ccc(C(C)C)cc1.Cc1ccc(C(C)C)cc1.[Cl-] [Compound 26] | 109 ± 6 | – | – | – | – | – | HFF Viability (%) ([7]; 0.1 µM): 109 ± 2%; HFF Viability (%) ([7]; 1 µM): 76 ± 0%; HFF Viability (%) ([7]; 2.5 µM): 45%; IC50 [8]: 0.178 µM
Cc1ccc(C(C)C)cc1.Cc1ccc(C(C)C)cc1.Cc1cn(Cc2cn(-c3ccc([S]4[Ru]5[S](Cc6ccc(C(C)(C)C)cc6)[Ru+]4[S]5Cc4ccc(C(C)(C)C)cc4)cc3)nn2)c(=O)[nH]c1=O.[Cl-] [Compound 24] | 56 ± 15 | – | – | – | very good stability; also recorded: no modifications | 98 ± 10 | HFF Viability (%) [7, 12]: 96 ± 4%; HFF Viability (%) [7, 13]: 85%; IC50 [8]: 0.357 µM
C#CCOC(=O)Cc1ccc([S+]2[Ru-]3[S+](Cc4ccc(C(C)(C)C)cc4)[Ru-]2[S+]3Cc2ccc(C(C)(C)C)cc2)cc1.Cc1ccc(C(C)C)cc1.Cc1ccc(C(C)C)cc1.[Cl-] (stereo not shown) [Compound 7] | 19 ± 1 | 0 ± 0 | – | – | – | 100 ± 2 | HFF Viability (%) [7, 13]: 51%; IC50 [8]: 0.289 µM
